The record followed here is ChEMBL document CHEMBL4673353, “Switching a Xanthine Oxidase Inhibitor to a Dual-Target Antagonist of P2Y and P2Y as an Oral Antiplatelet Agent with a Wider Therapeutic Window in Rats than Ticagrelor” (J Med Chem, 2020).

In general, IC50 refers to the point on the concentration scale where inhibition reaches its midpoint. By inhibition is commonly meant the share of the control response that was lost under treatment.

One series deals with Plasma. Put plainly: Antiplatelet activity in rabbit platelet-rich plasma assessed as inhibition of ADP-induced platelet aggregation preincubated for 5 mins followed by ADP addition measured every 1 min for up to 6 mins by microplate reader analysis. In kind it is functional, cell-free. As to conditions: Oryctolagus cuniculus.
Take `CCOC(=O)c1c(C)nc(-c2cccc(C#N)c2)n1OCc1ccc(C(=O)OC)cc1`: the IC50 came out at 9.47 µM.
On the same count and under the same terms, under `CCOC(=O)c1c(C)nc(-c2cccc(C#N)c2)n1OCc1cccc(Cl)c1` stands 19.4 µM; under `C=CCOn1c(-c2cccc(C#N)c2)nc(C)c1C(=O)O`, 6.35 µM.
For the molecule `CCOC(=O)c1[nH]c(-c2cccc(C#N)c2)nc1C`, the IC50 was over 30 µM.
On the same count and under the same terms, in the case of `COn1c(-c2cccc(C#N)c2)nc(C)c1C(=O)O` it was 7.99 µM; in that of `CCOC(=O)c1c(C)nc(-c2cccc(C#N)c2)n1C`, 22.1 µM.
Take `Cc1ccc(COn2c(-c3cccc(C#N)c3)nc(C)c2C(=O)O)cc1`: the IC50 came out at 6.56 µM.
The same measure, in the same setting: under `CCOC(=O)c1c(C)nc(-c2cccc(C#N)c2)n1OCc1ccc([N+](=O)[O-])cc1` stands 8.75 µM; under `CCOC(=O)c1c(C)nc(-c2cccc(C#N)c2)n1OCc1ccc(Br)cc1`, 24.6 µM.
With `CCOC(=O)c1c(C)nc(-c2cccc(C#N)c2)n1OCc1cccc(F)c1`, the IC50 turned out to be 22.4 µM.
Consider `CCOC(=O)c1c(C)nc(-c2cccc(C#N)c2)n1OCc1ccncc1`, for which the half-maximal inhibitory concentration (IC50) was 6.2 µM.
On the same count and under the same terms, under `CCCSc1nc(N[C@@H]2C[C@H]2c2ccc(F)c(F)c2)c2nnn([C@@H]3C[C@H](OCCO)[C@@H](O)[C@H]3O)c2n1` [TICAGRELOR] stands 7.21 µM; under `Cc1nc(-c2ccc(OCC(C)C)c(C#N)c2)n(O)c1C(=O)O`, 15.7 µM.
Same read-out and setting: under `CCOC(=O)c1c(C)nc(-c2cccc(C#N)c2)n1OCc1ccccc1C#N` stands 9.38 µM; under `CCOC(=O)c1c(C)nc(-c2ccccc2C#N)n1OC`, 14.9 µM.
Still for that read-out and setting: under `CCOC(=O)c1c(C)nc(-c2cccc(C#N)c2)n1OCc1ccccc1F` stands 8.99 µM.
`CCOC(=O)c1c(C)nc(-c2cccc(C#N)c2)n1OC`: the IC50 came out at 9.13 µM.
The same measure, in the same setting: under `CCOC(=O)c1c(C)nc(-c2cccc(C#N)c2)n1OCc1cccc(C#N)c1` stands over 30 µM; under `CCOC(=O)c1c(C)nc(-c2cccc(C#N)c2)n1OCc1ccc(C)cc1`, 6.31 µM.
On the same count and under the same terms, under `Cc1nc(-c2cccc(C#N)c2)n(OCc2ccccc2)c1C(=O)O` stands 6.24 µM.
The same measure, in the same setting: in the case of `CCOC(=O)c1c(C)nc(-c2ccc(OCC(C)C)c(C#N)c2)n1O` it was 16.8 µM; in that of `CCOC(=O)c1c(C)nc(-c2cccc(C#N)c2)n1OC(C)C`, 6.74 µM.
Turning to `CCOC(=O)c1c(C)nc(-c2cccc(C#N)c2)n1C(C)C`, the IC50 turned out to be 9.26 µM.
On the same count and under the same terms, in the case of `CCOC(=O)c1c(C)nc(-c2cccc(C#N)c2)n1OCc1ccccc1` it was 5.93 µM; in that of `CCOC(=O)COn1c(-c2cccc(C#N)c2)nc(C)c1C(=O)OCC`, 6.8 µM.
As for `CCOC(=O)c1c(C)nc(-c2ccccc2)n1OC`, the IC50 was over 30 µM.
Same read-out and setting: under `CCOC(=O)c1c(C)nc(-c2cccc(C#N)c2)n1OCC(N)=O` stands over 30 µM; under `CCOC(=O)c1c(C)nc(-c2cccc(C#N)c2)n1OCc1ccccc1Cl`, 8.71 µM.
The same measure, in the same setting: in the case of `CCOC(=O)c1c(C)nc(-c2cccc(C#N)c2)n1OCc1ccc(Cl)cc1` it was 6.83 µM; in that of `C=CCOn1c(-c2cccc(C#N)c2)nc(C)c1C(=O)OCC`, 5.86 µM; in that of `CCOC(=O)c1c(C)nc(-c2cccc(C#N)c2)n1O`, 17.6 µM.
Same read-out and setting: in the case of `CCOCCOn1c(-c2cccc(C#N)c2)nc(C)c1C(=O)OCC` it was 6.25 µM.
Turning to `CCOC(=O)c1c(C)nc(-c2cccc(C#N)c2)n1OCCC(=O)O`, the 50% inhibitory concentration (IC50) is over 30 µM.
Same read-out and setting: in the case of `CCOC(=O)c1c(C)nc(-c2cccc(C#N)c2)n1OCc1ccc(F)cc1` it was 5.88 µM; in that of `CCOC(=O)c1c(C)nc(-c2ccc(C#N)cc2)n1OC`, 13.4 µM.
Still for that read-out and setting: under `CC(C)(C)c1ccccc1Oc1ncccc1NC(=O)Nc1ccc(OC(F)(F)F)cc1` stands 5.54 µM; under `CCOC(=O)c1c(C)nc(-c2cccc(C#N)c2)n1OCCCO`, 11.4 µM; under `CCOC(=O)c1c(C)nc(-c2cccc(C#N)c2)n1OCc1ccc(OC)cc1`, 6.83 µM.

Tested on in a further series: not listed separately
The experiment in a line: Antagonist activity at P2Y1 in rabbit platelet-rich plasma assessed as inhibition of ADP-induced increase in intracellular Ca2+ concentration preincubated for 5 mins followed by ADP addition and measured for 3 mins by fluo4 dye-based fluorescence assay. The class given is cell-free. To be noted: Oryctolagus cuniculus.
Regarding `CC(C)(C)c1ccccc1Oc1ncccc1NC(=O)Nc1ccc(OC(F)(F)F)cc1`, the IC50 turned out to be 3.03 µM.

The target of the next series is P2Y purinoceptor 12 (Homo sapiens, UniProt Q9H244). The experiment in a line: Antagonist activity at P2Y12 in human whole blood assessed as suppression of ADP-induced decrease in PGE1-induced VASP phosphorylation measured after 10 mins by immunostaining based flow cytometric analysis. The class given is tissue-based.
Sequence of P2Y purinoceptor 12 (Q9H244 whole entry): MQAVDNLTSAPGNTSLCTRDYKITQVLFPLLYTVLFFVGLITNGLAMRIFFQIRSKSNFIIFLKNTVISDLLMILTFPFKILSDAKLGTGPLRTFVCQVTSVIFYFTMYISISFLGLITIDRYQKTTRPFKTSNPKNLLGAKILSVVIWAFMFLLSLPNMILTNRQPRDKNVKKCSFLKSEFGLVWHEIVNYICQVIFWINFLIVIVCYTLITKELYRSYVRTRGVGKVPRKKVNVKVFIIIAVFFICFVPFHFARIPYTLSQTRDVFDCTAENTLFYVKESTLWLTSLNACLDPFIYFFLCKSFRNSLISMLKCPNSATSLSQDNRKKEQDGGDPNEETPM
Details: not given
On the technique in general: In flow cytometry, cells or beads pass a laser one at a time.
For `CCCSc1nc(N[C@@H]2C[C@H]2c2ccc(F)c(F)c2)c2nnn([C@@H]3C[C@H](OCCO)[C@@H](O)[C@H]3O)c2n1` [TICAGRELOR], the IC50 worked out at 5.14 µM.
For `CNc1nc(Cl)nc2c1ncn2CC(COC(=O)C(C)(C)C)COC(=O)C(C)(C)C`, the IC50 amounted to 176 µM.

The next series deals with Xanthine dehydrogenase/oxidase (Bos taurus, UniProt P80457). The experiment in a line: Inhibition of bovine xanthine oxidase assessed as reduction in uric acid formation at 10 uM using xanthine as substrate preincubated for 15 mins followed by substrate addition measured at 30 sec interval for upto 2 mins by spectrophotometric analysis relative to control. To be noted: cattle, time 17 min.
Sequence of Xanthine dehydrogenase/oxidase (P80457 whole entry): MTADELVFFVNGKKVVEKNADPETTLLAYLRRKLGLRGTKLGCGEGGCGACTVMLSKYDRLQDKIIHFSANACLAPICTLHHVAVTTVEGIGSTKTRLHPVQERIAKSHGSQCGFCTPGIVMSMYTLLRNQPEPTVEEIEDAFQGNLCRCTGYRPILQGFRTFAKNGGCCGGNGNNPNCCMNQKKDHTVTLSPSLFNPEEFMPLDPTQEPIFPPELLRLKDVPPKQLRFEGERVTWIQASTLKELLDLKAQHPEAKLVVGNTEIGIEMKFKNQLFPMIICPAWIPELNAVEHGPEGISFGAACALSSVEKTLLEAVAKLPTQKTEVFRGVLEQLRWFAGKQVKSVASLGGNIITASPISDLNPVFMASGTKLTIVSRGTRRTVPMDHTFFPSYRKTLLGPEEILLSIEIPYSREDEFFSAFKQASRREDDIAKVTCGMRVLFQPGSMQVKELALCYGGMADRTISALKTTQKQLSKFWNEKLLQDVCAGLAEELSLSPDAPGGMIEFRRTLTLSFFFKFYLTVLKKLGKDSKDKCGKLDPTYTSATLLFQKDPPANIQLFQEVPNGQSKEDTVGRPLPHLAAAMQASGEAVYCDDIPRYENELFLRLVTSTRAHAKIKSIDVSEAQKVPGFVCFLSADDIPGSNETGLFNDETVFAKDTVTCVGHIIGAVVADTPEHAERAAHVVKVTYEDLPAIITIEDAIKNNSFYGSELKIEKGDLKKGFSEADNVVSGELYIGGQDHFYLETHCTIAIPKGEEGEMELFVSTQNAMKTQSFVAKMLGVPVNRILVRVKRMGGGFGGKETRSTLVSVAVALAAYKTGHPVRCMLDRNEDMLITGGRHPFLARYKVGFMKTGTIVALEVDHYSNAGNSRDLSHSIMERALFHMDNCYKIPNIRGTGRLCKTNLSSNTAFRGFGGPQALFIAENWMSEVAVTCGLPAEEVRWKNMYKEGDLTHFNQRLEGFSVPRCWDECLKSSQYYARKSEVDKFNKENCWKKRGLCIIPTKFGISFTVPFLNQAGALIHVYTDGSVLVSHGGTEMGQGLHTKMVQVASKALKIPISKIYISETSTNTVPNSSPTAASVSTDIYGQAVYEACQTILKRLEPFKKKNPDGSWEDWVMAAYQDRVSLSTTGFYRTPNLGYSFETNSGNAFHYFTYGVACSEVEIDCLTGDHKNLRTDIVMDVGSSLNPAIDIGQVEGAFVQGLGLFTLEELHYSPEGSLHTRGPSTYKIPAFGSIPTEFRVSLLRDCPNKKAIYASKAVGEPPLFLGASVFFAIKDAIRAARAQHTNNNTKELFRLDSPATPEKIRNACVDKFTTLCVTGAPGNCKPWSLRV
On to `CCCSc1nc(N[C@@H]2C[C@H]2c2ccc(F)c(F)c2)c2nnn([C@@H]3C[C@H](OCCO)[C@@H](O)[C@H]3O)c2n1` [TICAGRELOR], for which the inhibition at 10 µM was under 50%.

Another series concerns Rattus norvegicus. Put plainly: Antithrombotic activity in FeCl3-induced Sprague-Dawley rat model of arterial thrombosis assessed as reduction in thrombus weight at 10 mg/kg, po qd administered as single dose for 7 days and measured 2 hrs post last dose. In kind it is functional. On the set-up: scale not given: the % may be the effect or the level left. To be noted: time 7 day.
With `CCCSc1nc(N[C@@H]2C[C@H]2c2ccc(F)c(F)c2)c2nnn([C@@H]3C[C@H](OCCO)[C@@H](O)[C@H]3O)c2n1` [TICAGRELOR], the Activity is on record as 39.2%.

Tested on in the next series: not listed separately
The experiment in a line: Toxicity in Sprague-Dawley rat model of tail-snip bleeding assessed as bleeding time at 10 mg/kg, po administered via gavage as single dose measured within 2 hrs post tail snip (reference value: 17.69 min). As to conditions: in vivo. The class given is organism-based.
Take `CCCSc1nc(N[C@@H]2C[C@H]2c2ccc(F)c(F)c2)c2nnn([C@@H]3C[C@H](OCCO)[C@@H](O)[C@H]3O)c2n1` [TICAGRELOR]: the Time is reported as 120 min.

Tested on in a further series: not listed separately
Put plainly: Toxicity in Sprague-Dawley rat model of tail snip bleeding assessed as bleeding weight at 10 mg/kg, po administered via gavage as single dose measured within 2 hrs post tail snip(reference value: 0.08 g). As to conditions: in vivo. In kind it is organism-based.
As for `CCCSc1nc(N[C@@H]2C[C@H]2c2ccc(F)c(F)c2)c2nnn([C@@H]3C[C@H](OCCO)[C@@H](O)[C@H]3O)c2n1` [TICAGRELOR], the Activity was 3.89 g.
